Source: PubChem BioAssay AID330 (DTP/NCI, 2004)
“And” between values parts separate entries of the source, which are not always exact repeats. Equal values may be shown once. Inconclusive results and toxic doses are left out.

Test system: P388 leukemia ip, CD2F1 mice, survival T/C
Test: NCI In Vivo Anticancer Drug Screen. Data for tumor model P388 Leukemia (intraperitoneal) in CD2F1 (CDF1) mice
Details: endpoint: median survival time, higher = longer survival
Procedure, shortened: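 Mice carrying the transplanted tumor received test compound or vehicle. Survival was recorded in each group, and the value is the treated-group measurement divided by that of the vehicle-treated control group.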

[1] = dose: 60.0 mg/kg/injection, schedule: Q01DX005 (ip), vehicle: saline with Tween-80
[2] = dose: 120.0 mg/kg/injection, schedule: Q01DX005 (ip), vehicle: saline with Tween-80
[3] = dose: 240.0 mg/kg/injection, schedule: Q01DX005 (ip), vehicle: saline with Tween-80
[4] = dose: 50.0 mg/kg/injection, schedule: Q01DX005 (ip), vehicle: saline with Tween-80
[5] = dose: 100.0 mg/kg/injection, schedule: Q01DX005 (ip), vehicle: saline with Tween-80
[6] = dose: 200.0 mg/kg/injection, schedule: Q01DX005 (ip), vehicle: saline with Tween-80
[7] = dose: 25.0 mg/kg/injection, schedule: Q01DX005 (ip), vehicle: saline with Tween-80
[8] = dose: 50.0 mg/kg/injection, schedule: Q01DX005 (ip), vehicle: Klucel (hydroxypropylcellulose) (HPC)
[9] = dose: 100.0 mg/kg/injection, schedule: Q01DX005 (ip), vehicle: Klucel (hydroxypropylcellulose) (HPC)
[10] = dose: 200.0 mg/kg/injection, schedule: Q01DX009 (ip), vehicle: saline with Tween-80
[11] = dose: 60.0 mg/kg/injection, schedule: Q01DX005 (ip), vehicle: Klucel (hydroxypropylcellulose) (HPC)
[12] = dose: 120.0 mg/kg/injection, schedule: Q01DX005 (ip), vehicle: Klucel (hydroxypropylcellulose) (HPC)
[13] = dose: 100.0 mg/kg/injection, schedule: Q01DX009 (ip), vehicle: saline with Tween-80
[14] = dose: 50.0 mg/kg/injection, schedule: Q01DX009 (ip), vehicle: saline with Tween-80
[15] = dose: 12.5 mg/kg/injection, schedule: Q01DX009 (ip), vehicle: saline with Tween-80
[16] = dose: 25.0 mg/kg/injection, schedule: Q01DX009 (ip), vehicle: saline with Tween-80
[17] = dose: 50.0 mg/kg/injection, schedule: Q01DX009 (ip), vehicle: saline
[18] = dose: 100.0 mg/kg/injection, schedule: Q01DX009 (ip), vehicle: saline
[19] = dose: 200.0 mg/kg/injection, schedule: Q01DX009 (ip), vehicle: saline
[20] = dose: 15.0 mg/kg/injection, schedule: Q01DX005 (ip), vehicle: saline with Tween-80
[21] = dose: 30.0 mg/kg/injection, schedule: Q01DX005 (ip), vehicle: saline with Tween-80
[22] = dose: 25.0 mg/kg/injection, schedule: Q04DX002 (ip), vehicle: saline with Tween-80
[23] = dose: 50.0 mg/kg/injection, schedule: Q04DX002 (ip), vehicle: saline with Tween-80

With `NNC(=O)C1C2c3ccccc3C(c3ccccc32)C1C(=O)O` (stereo unspecified) the T/C [1] was 99 % of control, the T/C [2] was 101 % of control and the T/C [3] was 103 % of control.

In the case of `COC1(c2ccccc2)C2CCCCC2C2CCCCC21` (stereo unspecified), the T/C [4] is reported as 100 % of control, the T/C [5] is reported as 98 % of control and the T/C [6] is reported as 100 % of control.

`Nc1nc2cc3[nH]ncc3cc2c(=O)[nH]1` was tested, and the T/C (dose: 12.5 mg/kg/injection, schedule: Q01DX005 (ip), vehicle: saline with Tween-80) was 98 % of control, the T/C [7] was 91 % of control and the T/C [4] was 94 % of control and 97 % of control. For the same compound, the T/C [5] was 101 % of control and the T/C [6] was 102 % of control.

`CCOC(=O)c1cnc(-c2ccccc2)n(-c2ccccc2)c1=O` was tested, and the T/C [8] was 105 % of control and the T/C [9] was 107 % of control.

In the case of `CCCCCCCCCCCC(=O)NCC(=O)NC1CC(OC2CC(O)(C(C)=O)Cc3c(O)c4c(c(O)c32)C(=O)c2c(OC)cccc2C4=O)OC(C)C1O` (stereo unspecified), the T/C (dose: 0.75 mg/kg/injection, schedule: Q01DX009 (ip), vehicle: other) is reported as 107 % of control, the T/C (dose: 1.5 mg/kg/injection, schedule: Q01DX009 (ip), vehicle: other) is reported as 108 % of control and the T/C (dose: 3.0 mg/kg/injection, schedule: Q01DX009 (ip), vehicle: other) is reported as 112 % of control. The T/C (dose: 6.0 mg/kg/injection, schedule: Q01DX009 (ip), vehicle: other) was 116 % of control and the T/C (dose: 12.0 mg/kg/injection, schedule: Q01DX009 (ip), vehicle: other) was 99 % of control.

With `C/C=C(\C)C(C)(C#N)Nc1ccccc1` (stereo unspecified) the T/C [10] was 90 % of control.

In the case of `O=C(Nc1ccccc1)/C(N=Nc1ccc([N+](=O)[O-])cc1Cl)=N/Nc1ccccc1S(=O)(=O)O`, the T/C [8] is reported as 102 % of control, the T/C [9] is reported as 101 % of control and the T/C (dose: 200.0 mg/kg/injection, schedule: Q01DX005 (ip), vehicle: Klucel (hydroxypropylcellulose) (HPC)) is reported as 91 % of control.

With `CN(C)C(=O)c1ccc(SC(=S)NCc2ccccc2)cc1` the T/C (dose: 15.0 mg/kg/injection, schedule: Q01DX005 (ip), vehicle: Klucel (hydroxypropylcellulose) (HPC)) was 103 % of control, the T/C (dose: 30.0 mg/kg/injection, schedule: Q01DX005 (ip), vehicle: Klucel (hydroxypropylcellulose) (HPC)) was 103 % of control and the T/C [11] was 101 % of control and 104 % of control. For the same compound, the T/C [12] was 115 % of control.

With `CCCCCCCCCCCCCCCC(=O)N(CCC#N)CCC#N` the T/C [13] was 185 % of control and the T/C [10] was 100 % of control.

In the case of `O=C(Nc1ccc(Cc2ccc(NC(=O)Nc3nccs3)cc2)cc1)Nc1nccs1`, the T/C (dose: 12.5 mg/kg/injection, schedule: Q01DX009 (ip), vehicle: Klucel (hydroxypropylcellulose) (HPC)) is reported as 100 % of control, the T/C (dose: 25.0 mg/kg/injection, schedule: Q01DX009 (ip), vehicle: Klucel (hydroxypropylcellulose) (HPC)) is reported as 100 % of control and 95 % of control and the T/C (dose: 50.0 mg/kg/injection, schedule: Q01DX009 (ip), vehicle: Klucel (hydroxypropylcellulose) (HPC)) is reported as 98 % of control and 91 % of control.

`CCOC1=C(C)N2/C(=C/C(=O)OC)[C@@H]3C[C@@H](C)C[C@]2(O3)S1` was tested, and the T/C [1] was 101 % of control, the T/C [2] was 94 % of control and the T/C [3] was 104 % of control.

With `O=C(CN1C(=O)c2cccc3c(Br)ccc(c23)C1=O)c1ccc(Cl)cc1` the T/C [4] was 92 % of control, the T/C [5] was 92 % of control and the T/C [6] was 90 % of control.

In the case of `CC1CCCN(C(=O)Nc2ccc([N+](=O)[O-])cc2)C1` (stereo unspecified), the T/C [14] is reported as 99 % of control, the T/C [13] is reported as 94 % of control and the T/C [10] is reported as 92 % of control.

With `Nc1ncc2c(=O)c3c(ccc4ccccc43)oc2n1` the T/C [15] was 96 % of control, the T/C [16] was 98 % of control and the T/C [14] was 90 % of control. For the same compound, the T/C [13] was 87 % of control.

`CCC(=O)Oc1ccc(C2N(Cc3ccc(N(C)C)cc3)CCCN2Cc2ccc(N(C)C)cc2)cc1` was tested, and the T/C [14] was 90 % of control and the T/C [10] was 90 % of control.

In the case of `CC(=O)N=C(N)N`, the T/C [17] is reported as 103 % of control, the T/C [18] is reported as 100 % of control and the T/C [19] is reported as 99 % of control.

With `CSC(C#N)(c1ccccc1)N(C)C` (stereo unspecified) the T/C (dose: 25.0 mg/kg/injection, schedule: Q04DX003 (ip), vehicle: suspension in saline) was 106 % of control, the T/C (dose: 50.0 mg/kg/injection, schedule: Q04DX003 (ip), vehicle: suspension in saline) was 103 % of control and the T/C (dose: 100.0 mg/kg/injection, schedule: Q04DX003 (ip), vehicle: saline with Tween-80) was 103 % of control. The T/C (dose: 100.0 mg/kg/injection, schedule: Q04DX003 (ip), vehicle: suspension in saline) was 96 % of control.

`CCCCNC(=S)N/N=C1/CC(=O)N(c2ccccc2)C1c1ccccc1` (stereo unspecified) was tested, and the T/C [1] was 89 % of control and the T/C [2] was 89 % of control.

In the case of `COc1cc(Br)c(CC(NC=O)c2ccc3c(c2)OCO3)cc1OC` (stereo unspecified), the T/C [20] is reported as 107 % of control, the T/C [21] is reported as 104 % of control and the T/C [1] is reported as 89 % of control and 94 % of control.

`Cc1cc(C(=O)N/N=C/c2ccccc2O)c2cc(Br)ccc2n1` was tested, and the T/C [15] was 88 % of control, the T/C [16] was 92 % of control and the T/C [13] was 98 % of control. For the same compound, the T/C [10] was 97 % of control.

`C=CC(C)n1ccnc1` (stereo unspecified) was tested, and the T/C [17] was 101 % of control, the T/C [18] was 97 % of control and the T/C [19] was 102 % of control.

In the case of `Clc1ccccc1C(Nc1nncs1)Nc1nncs1`, the T/C [1] is reported as 106 % of control, the T/C [2] is reported as 113 % of control and the T/C [3] is reported as 122 % of control.

With `Cc1ccc([Si]23OC(C)CN(CC(C)O2)CC(C)O3)cc1` (stereo unspecified) the T/C [4] was 100 % of control, the T/C [5] was 109 % of control and the T/C [6] was 100 % of control.

`C=C(C)C1Oc2ccc(C(C)=O)cc2C1OC(=O)/C(C)=C\C` (stereo unspecified) was tested, and the T/C (dose: 22.5 mg/kg/injection, schedule: Q01DX009 (ip), vehicle: other) was 107 % of control, the T/C (dose: 45.0 mg/kg/injection, schedule: Q01DX009 (ip), vehicle: other) was 111 % of control and the T/C (dose: 90.0 mg/kg/injection, schedule: Q01DX009 (ip), vehicle: other) was 107 % of control. The T/C (dose: 180.0 mg/kg/injection, schedule: Q01DX009 (ip), vehicle: other) was 107 % of control.

For `Cc1ccc([NH-])c([NH-])c1.[Cl][Pt+2][Cl]`, the T/C (dose: 1.56 mg/kg/injection, schedule: Q04DX002 (ip), vehicle: saline with Tween-80) was 105 % of control and 108 % of control, the T/C (dose: 3.12 mg/kg/injection, schedule: Q04DX002 (ip), vehicle: saline with Tween-80) was 110 % of control and the T/C [22] was 150 % of control. For the same compound, the T/C [23] was 159 % of control.

For `CCCCCN(C)c1ncnc2[nH]ncc12`, the T/C (dose: 25.0 mg/kg/injection, schedule: Q01DX005 (ip), vehicle: saline) was 94 % of control, the T/C (dose: 50.0 mg/kg/injection, schedule: Q01DX005 (ip), vehicle: saline) was 95 % of control and the T/C (dose: 100.0 mg/kg/injection, schedule: Q01DX005 (ip), vehicle: saline) was 100 % of control.

`Cc1cc(N=C2C=CC(=[N+](C)C)C=C2)c(N)cc1N` was tested, and the T/C [16] was 107 % of control and the T/C [14] was 107 % of control.

`CN=C(N)N/N=C(/C)c1cc2ccccc2c2ccccc12` was tested, and the T/C [22] was 95 % of control, the T/C [23] was 101 % of control and the T/C (dose: 100.0 mg/kg/injection, schedule: Q04DX002 (ip), vehicle: saline with Tween-80) was 102 % of control.

For `NC(=S)Nc1cccc(C(F)(F)F)c1`, the T/C (dose: 100.0 mg/kg/injection, schedule: Q01DX009 (ip), vehicle: other) was 104 % of control and the T/C (dose: 200.0 mg/kg/injection, schedule: Q01DX009 (ip), vehicle: other) was 115 % of control.

For `COc1ccc(C)cc1N=NC1C(=O)N(C(=O)CC(=O)Nc2cccc(C)c2)N=C1C` (stereo unspecified), the T/C [11] was 95 % of control, the T/C [12] was 89 % of control and the T/C (dose: 240.0 mg/kg/injection, schedule: Q01DX005 (ip), vehicle: Klucel (hydroxypropylcellulose) (HPC)) was 90 % of control.

In the case of `O=c1cccc2n1C[C@H]1C[C@@H]2CN2CCCC[C@H]12`, the T/C (dose: 6.25 mg/kg/injection, schedule: Q01DX005 (ip), vehicle: saline) is reported as 99 % of control and the T/C (dose: 12.5 mg/kg/injection, schedule: Q01DX005 (ip), vehicle: saline) is reported as 99 % of control.

`CCCn1c(C)nc2cc(C(F)(F)F)cc([N+](=O)[O-])c21` was tested, and the T/C [20] was 94 % of control, the T/C [21] was 99 % of control and the T/C [1] was 101 % of control and 97 % of control. For the same compound, the T/C [2] was 98 % of control and the T/C [3] was 103 % of control.

With `O=C(Nc1ccc(S(=O)(=O)Nc2nccs2)cc1)c1cccnc1Nc1cccc(Cl)c1` the T/C [1] was 111 % of control, the T/C [2] was 113 % of control and the T/C [3] was 106 % of control.

For `CN(c1ccccc1)C(C#N)CC(C)(C)C` (stereo unspecified), the T/C [8] was 98 % of control and the T/C [9] was 107 % of control.

`O=C(Nc1ccc(CCC2=NCCCN2)cc1)c1ccc(C(=O)Nc2ccc(CCC3=NCCCN3)cc2)cc1` was tested, and the T/C [7] was 115 % of control and the T/C [4] was 113 % of control.
